Assay results: ChEMBL document CHEMBL1149781, “New glycosidic derivatives of histidine-containing dipeptides with antioxidant properties and resistant to carnosinase activity” (Eur J Med Chem, 2008)
Values belong to the compound of their own block, whether it stands above or below them.

Experiments:
Type in all cases: functional
[1] = Antioxidant activity against copper-induced lipid peroxidation in human LDL assessed as inhibition of malondialdehyde formation at 5 uM relative to control; parameters: scale not given: the % may be the effect or the level left
[2] = Antioxidant activity against copper-induced lipid peroxidation in human LDL assessed as inhibition of malondialdehyde formation at 10 uM relative to control; parameters: scale not given: the % may be the effect or the level left
[3] = Antioxidant activity against copper-induced lipid peroxidation in human LDL assessed as inhibition of malondialdehyde formation at 50 uM relative to control; parameters: scale not given: the % may be the effect or the level left
[4] = Antioxidant activity against copper-induced lipid peroxidation in human LDL assessed as inhibition of malondialdehyde formation at 20 uM relative to control; parameters: scale not given: the % may be the effect or the level left
[5] = Antioxidant activity against copper-induced lipid peroxidation in human LDL assessed as inhibition of malondialdehyde formation at 100 uM relative to control; parameters: scale not given: the % may be the effect or the level left
[6] = Antioxidant activity against copper-induced lipid peroxidation in human LDL assessed as inhibition of malondialdehyde formation at 2 uM relative to control; parameters: scale not given: the % may be the effect or the level left
[7] = Antioxidant activity against copper-induced lipid peroxidation in human LDL assessed as inhibition of malondialdehyde formation at 200 uM relative to control; parameters: scale not given: the % may be the effect or the level left
[8] = Antioxidant activity against copper-induced lipid peroxidation in human LDL assessed as inhibition of malondialdehyde formation

Structure (SMILES): Cn1cncc1C[C@H](NC(=O)CCN)C(=O)O
Activity [1]: 0.51%
Activity [2]: 1.05%
Activity [3]: 8.55%
Activity [4]: 2.14%
Activity [5]: 12.2%
Activity [6]: 0.23%
Activity [7]: 18.7%

IC50 [8]: 88.7 µM
Structure (SMILES): Cn1cncc1CC(NC(=O)CCNC[C@H]1O[C@@H]2O[C@H]3[C@H](O)[C@@H](O)[C@@H](O[C@H]4[C@H](O)[C@@H](O)[C@@H](O[C@H]5[C@H](O)[C@@H](O)[C@@H](O[C@H]6[C@H](O)[C@@H](O)[C@@H](O[C@H]7[C@H](O)[C@@H](O)[C@@H](O[C@H]8[C@H](O)[C@@H](O)[C@@H](O[C@H]1[C@H](O)[C@H]2O)O[C@@H]8CO)O[C@@H]7CO)O[C@@H]6CO)O[C@@H]5CO)O[C@@H]4CO)O[C@@H]3CO)C(=O)O (some centres not stated)

Structure (SMILES): OC[C@H]1O[C@@H]2O[C@H]3[C@H](O)[C@@H](O)[C@@H](O[C@H]4[C@H](O)[C@@H](O)[C@@H](O[C@H]5[C@H](O)[C@@H](O)[C@@H](O[C@H]6[C@H](O)[C@@H](O)[C@@H](O[C@H]7[C@H](O)[C@@H](O)[C@@H](O[C@H]8[C@H](O)[C@@H](O)[C@@H](O[C@H]1[C@H](O)[C@H]2O)O[C@@H]8CO)O[C@@H]7CO)O[C@@H]6CO)O[C@@H]5CO)O[C@@H]4CO)O[C@@H]3CO
Activity [1]: 0.38%
Activity [2]: 0.65%
Activity [3]: 3.87%
Activity [4]: 1.26%
Activity [5]: 6.94%
Activity [6]: 0.11%
Activity [7]: 10.7%

IC50 [8]: 41.6 µM
Structure (SMILES): Cn1cncc1CC(NC(=O)CCN[C@@H]1[C@@H](O)[C@H]2O[C@H]3[C@H](O)[C@@H](O)[C@@H](O[C@H]4[C@H](O)[C@@H](O)[C@@H](O[C@H]5[C@H](O)[C@@H](O)[C@@H](O[C@H]6[C@H](O)[C@@H](O)[C@@H](O[C@H]7[C@H](O)[C@@H](O)[C@@H](O[C@H]8[C@H](O)[C@@H](O)[C@@H](O[C@@H]1[C@@H](CO)O2)O[C@@H]8CO)O[C@@H]7CO)O[C@@H]6CO)O[C@@H]5CO)O[C@@H]4CO)O[C@@H]3CO)C(=O)O (some centres not stated)

IC50 [8]: 23.4 µM
Structure (SMILES): O=C(CCN[C@@H]1[C@@H](O)[C@H]2O[C@H]3[C@H](O)[C@@H](O)[C@@H](O[C@H]4[C@H](O)[C@@H](O)[C@@H](O[C@H]5[C@H](O)[C@@H](O)[C@@H](O[C@H]6[C@H](O)[C@@H](O)[C@@H](O[C@H]7[C@H](O)[C@@H](O)[C@@H](O[C@H]8[C@H](O)[C@@H](O)[C@@H](O[C@@H]1[C@@H](CO)O2)O[C@@H]8CO)O[C@@H]7CO)O[C@@H]6CO)O[C@@H]5CO)O[C@@H]4CO)O[C@@H]3CO)NC(Cc1cnc[nH]1)C(=O)O (some centres not stated)
